In brackets after ≈: the same amount, converted by molar mass.
Legend:
Assay type in all cases: functional
Haemophilus influenzae = assay: Inhibitory activity against Haemophilus influenzae UC30063
Staphylococcus aureus [1] = assay: Inhibitory activity against Methicillin-susceptible Staphylococcus aureus UC9213
[2] = test system: Staphylococcus epidermidis; assay: Inhibitory activity against Methicillin-resistant Staphylococcus epidermidis UC12084
Enterococcus faecalis = assay: Inhibitory activity against Enterococcus faecalis UC9217
Moraxella catarrhalis = assay: Inhibitory activity against Moraxella catarrhalis UC30610
Streptococcus pneumoniae = assay: Inhibitory activity against Streptococcus pneumoniae UC9912
Staphylococcus aureus [3] = assay: Inhibitory activity against Methicillin-resistant Staphylococcus aureus UC6685

CC(=O)NC[C@H]1CN(c2ccc(-n3ccc(NS(C)(=O)=O)n3)c(F)c2)C(=O)O1
MIC (Haemophilus influenzae): > 16 mg/L
MIC (Staphylococcus aureus [1]): > 16 mg/L
MIC [2]: 4 mg/L (≈ 9.72 µM)
MIC (Enterococcus faecalis): > 16 mg/L
MIC (Moraxella catarrhalis): > 16 mg/L
MIC (Streptococcus pneumoniae): 4 mg/L (≈ 9.72 µM)

CC(=O)NC[C@H]1CN(c2ccc(-n3ncnn3)c(F)c2)C(=O)O1
MIC (Haemophilus influenzae): 8 mg/L (≈ 25 µM)
MIC (Staphylococcus aureus [1]): 2 mg/L (≈ 6.24 µM)
MIC [2]: 1 mg/L (≈ 3.12 µM)
MIC (Enterococcus faecalis): 1 mg/L (≈ 3.12 µM)
MIC (Moraxella catarrhalis): 8 mg/L (≈ 25 µM)
MIC (Streptococcus pneumoniae): 0.5 mg/L (≈ 1.56 µM)
MIC (Staphylococcus aureus [3]): 2 mg/L (≈ 6.24 µM)

CC(=O)NC[C@H]1CN(c2ccc(-n3cc(C#C[Si](C)(C)C)cn3)c(F)c2)C(=O)O1
MIC (Haemophilus influenzae): > 16 mg/L
MIC (Staphylococcus aureus [1]): 4 mg/L (≈ 9.65 µM)
MIC [2]: 2 mg/L (≈ 4.82 µM)
MIC (Enterococcus faecalis): 8 mg/L (≈ 19.3 µM)
MIC (Moraxella catarrhalis): > 16 mg/L
MIC (Streptococcus pneumoniae): 2 mg/L (≈ 4.82 µM)
MIC (Staphylococcus aureus [3]): 4 mg/L (≈ 9.65 µM)

CC(=O)NC[C@H]1CN(c2ccc(-n3ccc(CCCO)c3)c(F)c2)C(=O)O1
MIC (Haemophilus influenzae): > 16 mg/L
MIC (Staphylococcus aureus [1]): 4 mg/L (≈ 10.7 µM)
MIC [2]: 1 mg/L (≈ 2.66 µM)
MIC (Enterococcus faecalis): 2 mg/L (≈ 5.33 µM)
MIC (Moraxella catarrhalis): 8 mg/L (≈ 21.3 µM)
MIC (Streptococcus pneumoniae): 0.5 mg/L (≈ 1.33 µM)
MIC (Staphylococcus aureus [3]): 4 mg/L (≈ 10.7 µM)

CC(=O)NC[C@H]1CN(c2ccc(-n3ccc(C)n3)c(F)c2)C(=O)O1
MIC (Haemophilus influenzae): > 16 mg/L
MIC (Staphylococcus aureus [1]): 4 mg/L (≈ 12 µM)
MIC [2]: 1 mg/L (≈ 3.01 µM)
MIC (Enterococcus faecalis): 4 mg/L (≈ 12 µM)
MIC (Moraxella catarrhalis): 16 mg/L (≈ 48.1 µM)
MIC (Streptococcus pneumoniae): 1 mg/L (≈ 3.01 µM)
MIC (Staphylococcus aureus [3]): 4 mg/L (≈ 12 µM)

CC(=O)NC[C@H]1CN(c2ccc(-n3nnc(/C=N/O)n3)c(F)c2)C(=O)O1
MIC (Haemophilus influenzae): 16 mg/L (≈ 44 µM)
MIC (Staphylococcus aureus [1]): 4 mg/L (≈ 11 µM)
MIC [2]: 1 mg/L (≈ 2.75 µM)
MIC (Enterococcus faecalis): 4 mg/L (≈ 11 µM)
MIC (Moraxella catarrhalis): 8 mg/L (≈ 22 µM)
MIC (Streptococcus pneumoniae): 0.5 mg/L (≈ 1.38 µM)
MIC (Staphylococcus aureus [3]): 4 mg/L (≈ 11 µM)

CC(=O)NC[C@H]1CN(c2ccc(-n3ccc(NC(=O)CO)n3)c(F)c2)C(=O)O1
MIC (Haemophilus influenzae): > 16 mg/L
MIC (Staphylococcus aureus [1]): 16 mg/L (≈ 40.9 µM)
MIC [2]: 4 mg/L (≈ 10.2 µM)
MIC (Enterococcus faecalis): 8 mg/L (≈ 20.4 µM)
MIC (Moraxella catarrhalis): > 16 mg/L
MIC (Streptococcus pneumoniae): 1 mg/L (≈ 2.56 µM)
MIC (Staphylococcus aureus [3]): 16 mg/L (≈ 40.9 µM)

CC(=O)NC[C@H]1CN(c2ccc(-n3ccc(C#N)n3)c(F)c2)C(=O)O1
MIC (Haemophilus influenzae): 16 mg/L (≈ 46.6 µM)
MIC (Staphylococcus aureus [1]): 1 mg/L (≈ 2.91 µM)
MIC [2]: 0.5 mg/L (≈ 1.46 µM)
MIC (Enterococcus faecalis): 2 mg/L (≈ 5.83 µM)
MIC (Moraxella catarrhalis): 8 mg/L (≈ 23.3 µM)
MIC (Streptococcus pneumoniae): 0.5 mg/L (≈ 1.46 µM)
MIC (Staphylococcus aureus [3]): 1 mg/L (≈ 2.91 µM)

CC(=O)NC[C@H]1CN(c2ccc(-n3ccc(C(N)=O)c3)c(F)c2)C(=O)O1
MIC (Haemophilus influenzae): > 16 mg/L
MIC (Staphylococcus aureus [1]): 16 mg/L (≈ 44.4 µM)
MIC [2]: 1 mg/L (≈ 2.78 µM)
MIC (Enterococcus faecalis): 4 mg/L (≈ 11.1 µM)
MIC (Moraxella catarrhalis): > 16 mg/L
MIC (Streptococcus pneumoniae): 0.25 mg/L (≈ 0.694 µM)
MIC (Staphylococcus aureus [3]): 8 mg/L (≈ 22.2 µM)

CC(=O)NC[C@H]1CN(c2ccc(-n3ccc(NC(=O)OC(C)(C)C)n3)c(F)c2)C(=O)O1
MIC (Haemophilus influenzae): > 16 mg/L
MIC (Staphylococcus aureus [1]): 4 mg/L (≈ 9.23 µM)
MIC [2]: 2 mg/L (≈ 4.61 µM)
MIC (Enterococcus faecalis): 2 mg/L (≈ 4.61 µM)
MIC (Moraxella catarrhalis): 8 mg/L (≈ 18.5 µM)
MIC (Streptococcus pneumoniae): 0.5 mg/L (≈ 1.15 µM)
MIC (Staphylococcus aureus [3]): 2 mg/L (≈ 4.61 µM)

CC(=O)NC[C@H]1CN(c2ccc(-n3cc(/C=N/O)nn3)c(F)c2)C(=O)O1
MIC (Haemophilus influenzae): > 16 mg/L
MIC (Staphylococcus aureus [1]): 8 mg/L (≈ 22.1 µM)
MIC [2]: 1 mg/L (≈ 2.76 µM)
MIC (Enterococcus faecalis): 8 mg/L (≈ 22.1 µM)
MIC (Moraxella catarrhalis): 8 mg/L (≈ 22.1 µM)
MIC (Streptococcus pneumoniae): 0.5 mg/L (≈ 1.38 µM)
MIC (Staphylococcus aureus [3]): 2 mg/L (≈ 5.52 µM)

CC(=O)NC[C@H]1CN(c2ccc(-n3nnc(C#N)n3)c(F)c2)C(=O)O1
MIC (Haemophilus influenzae): 16 mg/L (≈ 46.3 µM)
MIC (Staphylococcus aureus [1]): 2 mg/L (≈ 5.79 µM)
MIC [2]: 0.5 mg/L (≈ 1.45 µM)
MIC (Enterococcus faecalis): 2 mg/L (≈ 5.79 µM)
MIC (Moraxella catarrhalis): 4 mg/L (≈ 11.6 µM)
MIC (Streptococcus pneumoniae): 0.5 mg/L (≈ 1.45 µM)
MIC (Staphylococcus aureus [3]): 1 mg/L (≈ 2.9 µM)

CC(=O)NC[C@H]1CN(c2ccc(-n3nnc(C=O)n3)c(F)c2)C(=O)O1
MIC (Haemophilus influenzae): 16 mg/L (≈ 45.9 µM)
MIC (Staphylococcus aureus [1]): 8 mg/L (≈ 23 µM)
MIC [2]: 2 mg/L (≈ 5.74 µM)
MIC (Enterococcus faecalis): 16 mg/L (≈ 45.9 µM)
MIC (Moraxella catarrhalis): 16 mg/L (≈ 45.9 µM)
MIC (Streptococcus pneumoniae): 1 mg/L (≈ 2.87 µM)
MIC (Staphylococcus aureus [3]): 4 mg/L (≈ 11.5 µM)

CC(=O)NC[C@H]1CN(c2ccc(-n3cc(NC(=O)OC(C)(C)C)cn3)c(F)c2)C(=O)O1
MIC (Haemophilus influenzae): > 16 mg/L
MIC (Staphylococcus aureus [1]): 8 mg/L (≈ 18.5 µM)
MIC [2]: 2 mg/L (≈ 4.61 µM)
MIC (Enterococcus faecalis): 8 mg/L (≈ 18.5 µM)
MIC (Moraxella catarrhalis): > 16 mg/L
MIC (Streptococcus pneumoniae): 1 mg/L (≈ 2.31 µM)
MIC (Staphylococcus aureus [3]): 4 mg/L (≈ 9.23 µM)

CC(=O)NC[C@H]1CN(c2ccc(-n3cc(NC(C)=O)cn3)c(F)c2)C(=O)O1
MIC (Haemophilus influenzae): > 16 mg/L
MIC (Staphylococcus aureus [1]): > 16 mg/L
MIC [2]: 2 mg/L (≈ 5.33 µM)
MIC (Enterococcus faecalis): 16 mg/L (≈ 42.6 µM)
MIC (Moraxella catarrhalis): > 16 mg/L
MIC (Streptococcus pneumoniae): 1 mg/L (≈ 2.66 µM)
MIC (Staphylococcus aureus [3]): 16 mg/L (≈ 42.6 µM)

CNC(=O)c1cnn(-c2ccc(N3C[C@H](CNC(C)=O)OC3=O)cc2F)c1
MIC (Haemophilus influenzae): > 16 mg/L
MIC (Staphylococcus aureus [1]): > 16 mg/L
MIC [2]: 2 mg/L (≈ 5.33 µM)
MIC (Enterococcus faecalis): 16 mg/L (≈ 42.6 µM)
MIC (Moraxella catarrhalis): 16 mg/L (≈ 42.6 µM)
MIC (Streptococcus pneumoniae): 0.5 mg/L (≈ 1.33 µM)

CC(=O)NC[C@H]1CN(c2ccc(-n3cc(CO)nn3)c(F)c2)C(=O)O1
MIC (Haemophilus influenzae): 4 mg/L (≈ 11.5 µM)
MIC (Staphylococcus aureus [1]): 4 mg/L (≈ 11.5 µM)
MIC [2]: 0.5 mg/L (≈ 1.43 µM)
MIC (Enterococcus faecalis): 2 mg/L (≈ 5.73 µM)
MIC (Moraxella catarrhalis): 2 mg/L (≈ 5.73 µM)
MIC (Streptococcus pneumoniae): 0.25 mg/L (≈ 0.716 µM)
MIC (Staphylococcus aureus [3]): 4 mg/L (≈ 11.5 µM)

C#Cc1cnn(-c2ccc(N3C[C@H](CNC(C)=O)OC3=O)cc2F)c1
MIC (Haemophilus influenzae): > 16 mg/L
MIC (Staphylococcus aureus [1]): 2 mg/L (≈ 5.84 µM)
MIC [2]: 1 mg/L (≈ 2.92 µM)
MIC (Enterococcus faecalis): 2 mg/L (≈ 5.84 µM)
MIC (Moraxella catarrhalis): 8 mg/L (≈ 23.4 µM)
MIC (Streptococcus pneumoniae): 0.5 mg/L (≈ 1.46 µM)
MIC (Staphylococcus aureus [3]): 2 mg/L (≈ 5.84 µM)

CC(=O)NC[C@H]1CN(c2ccc(-n3ccc(=O)[nH]3)c(F)c2)C(=O)O1
MIC (Haemophilus influenzae): 16 mg/L (≈ 47.9 µM)
MIC (Staphylococcus aureus [1]): 8 mg/L (≈ 23.9 µM)
MIC [2]: 1 mg/L (≈ 2.99 µM)
MIC (Enterococcus faecalis): 8 mg/L (≈ 23.9 µM)
MIC (Moraxella catarrhalis): 8 mg/L (≈ 23.9 µM)
MIC (Streptococcus pneumoniae): 1 mg/L (≈ 2.99 µM)
MIC (Staphylococcus aureus [3]): 8 mg/L (≈ 23.9 µM)

CC(=O)NC[C@H]1CN(c2ccc(-n3cnc(C(N)=O)n3)c(F)c2)C(=O)O1
MIC (Haemophilus influenzae): > 16 mg/L
MIC (Staphylococcus aureus [1]): > 16 mg/L
MIC [2]: 16 mg/L (≈ 44.2 µM)
MIC (Enterococcus faecalis): > 16 mg/L
MIC (Moraxella catarrhalis): 16 mg/L (≈ 44.2 µM)
MIC (Streptococcus pneumoniae): 2 mg/L (≈ 5.52 µM)

— ChEMBL document CHEMBL1132968, “Substituent effects on the antibacterial activity of nitrogen-carbon-linked (azolylphenyl)oxazolidinones with expanded activity against the fastidious gram-negative organisms Haemophilus influenzae and Moraxella catarrhalis” (2000)
